Holding throughout (type): biochemical, porcine
For data set [1], the target named is T1, trypsin (Sus scrofa, UniProt P00761).
T1 construct: purchased Sigma-Aldrich; host or cells: porcine pancreas
Briefly: Trypsin inhibition, end point measurements with BAPA (conjugated peptide). As to conditions: for Efficiency: Ki,free/Ki,app = [I]eff/[I]tot, free Ahx–Phe–Leu–Arg–COOH as reference (1.00); for Ki: end point measurements. As for the experimental part: Fig. 5 vi/v 0 is plotted as a function of the conjugated TiO2–Ahx–Phe–Leu–Arg–COOH (A), ZnO–Ahx–Phe–Leu–Arg–COOH (B) and WorkBeads™‐Ahx‐Phe‐Leu‐Arg‐COOH (C). […] Error bars represent standard deviation.
Kinetic parameters were obtained by mixing substrate, enzyme and conjugate in a plastic Eppendorf tube with varying concentrations of TiO2–peptide 1 0–70 μM, ZnO–peptide 1 0–60 μM and gel beads conjugated to peptide 1 0–60 μM and incubating with end‐over‐end rotation. A total of 150 µL aliquots was withdrawn at five time points for each reaction, and the reaction was stopped in 100 mM acetic acid (pH 3). Absorbance was measured at 410 nm in a UV‐1601 UV‐Vis spectrophotometer (Shimadzu, Columbia, MD, USA).
(§1) For real‐time and end point measurements, the Ki value was estimated by the graphical method of Dixon and Morrison (Eqn 1). Ki was extracted after fitting the data to Eqns (1,2) using GRAPHPAD PRISM 8 (GraphPad Software, San Diego, CA, USA). A K M of 0.82 mM was used for the calculations.(1) vi/vo=1‐([E]+[I]+Kiapp)‐[E]+[I]+Kiapp^2‐4[E][I]/2[E]
(§2) The form of Kappi varies with the type of inhibitor. For competitive inhibitors, as in the case of leupeptin, the Ki value can be calculated from Eqn (2):(2) Kiapp=Ki1+[S]/KM

In data set [2] the target is T1, trypsin. Briefly: Kinetic measurements of TiO2-peptide conjugate (Vmax, Km; Fig. S2/Table S1). As to conditions: trypsin with conjugate present, 0.1 M NH4HCO3 pH 7.52, trypsin 0.125 µM, 34 mg conjugate (6.06 nmol peptide/mg TiO2) per reaction. As for the experimental part:
Figure S2. Kinetic measurements of TiO2-peptide conjugate.
Table S1. Extracted values from figure S2. Experiment setup: Buffer 0.1 M NH4HCO3 pH 7.52, [Trypsin] (in eppendorf) = 0.125 µM, 34 mg TiO2-Ahx-Phe-Leu-COOH
(6.06 nmol mod. peptide/mg TiO2) in each reaction.

In data set [3] the target is T1, trypsin. Briefly: Gelatin erosion method: inhibition activity of free and conjugated peptide in gelatin layer. As to conditions: for Rate (erosion well formation rate, linear regression): gel experiment; for Plateau (relative asymptotic plateau value, asymptotic area ratio at virtually maximal inhibition): gelatin erosion, relative area increase rate vs inhibitor concentration, fitted in GRAPHPAD PRISM 8. The source says: The gelatin erosion method that simulates a surface with a protective cover layer is here used to evaluate the function of the peptide in its different conjugation states where the relative area increase rate is plotted against the increasing inhibitor concentration in Fig. 6. The curves obtained as a function of concentration for the free peptide and the TiO2‐conjugated peptide, respectively, are virtually identical. […] This may tentatively be explained by a model where the enzyme molecules, once ‘captured’ by the immobilized peptides, also interact nonspecifically with the ZnO surface, resulting in addition of binding energies and thus also cooperative binding. As has been noted earlier by us, the well area converges to an asymptotic nonzero value ‘plateau’ at high inhibitor concentration that is virtually identical for the different cases. The limit may actually be set by the size of the droplet applied and initial enzyme diffusion. However, the similar limiting values further confirm that the inhibition modes are identical for free and conjugated inhibitor. […] This is actually in accordance with the pattern observed for the ZnO conjugate. […] For details regarding the gelatin erosion method, see Fig. S3 and Table S2.
The experiments were performed as described earlier. The concentration of the free inhibitor Ahx–Phe–Leu–Arg–COOH was ranging from 5 to 50 μM, for ZnO conjugate 1–15 μM and for TiO2 conjugate 1–25 μM.
Table S2. The rates, given by the linear regression, are given below for the gel experiment for free Ahx-Phe-Leu-Arg-COOH and its conjugated state to TiO2 and ZnO.

Data set [4] deals with T1, trypsin. In words: Trypsin inhibition, real-time measurements of initial velocities with BAPA (free inhibitors). Particulars: apparent Ki, tight-binding (Morrison) fit; 0.1 M NH4HCO3 pH 7.52, 2% (v/v) DMSO, BAPA 1 mM, trypsin 0.25 µM, KM 0.82 mM, read at 410 nm. The protocol:
Fig. 4 The ratio vi/v 0 is plotted as a function of the inhibitor peptide Ahx–Phe–Leu–Arg–COOH (A) and Ahx–Leu–Leu–Arg–COOH (B). […] Error bars represent standard deviation.
Kinetic parameters were obtained by measuring initial velocities in the presence of selected concentrations of natural leupeptin (0.14–1.62 µM), oxidized leupeptin (8–127 µM), reduced leupeptin (10–413 µM) and peptides 1 and 2 (8–254 µM). All reactions were performed in 0.1 M NH4HCO3 (pH 7.52) and 2% (v/v) DMSO using concentrations of BAPA and trypsin fixed at 1 mM and 0.25 µM, respectively. The reaction was monitored at 410 nm in a Shimadzu UV‐1601 UV‐Vis spectrophotometer.
as §1, §2

[5] abbreviates: apparent Ki of conjugated peptide, five time points, stopped in 100 mM acetic acid pH 3, 410 nm, trypsin 0.25 μM, BAPA 1 mM, Km 0.82 mM, read-out: Ki.
The mark [6] stands for this setting: apparent Ki of the stored conjugate, storage time not given (conjugates stored at 4 °C), read-out: Ki stored.

Non-standard residues stand in square brackets, D forms with d. Residues, ends and D or L forms follow the SMILES beside them. Ahx = NCCCCCC(=O)O

T1 sequence (P00761 9-231): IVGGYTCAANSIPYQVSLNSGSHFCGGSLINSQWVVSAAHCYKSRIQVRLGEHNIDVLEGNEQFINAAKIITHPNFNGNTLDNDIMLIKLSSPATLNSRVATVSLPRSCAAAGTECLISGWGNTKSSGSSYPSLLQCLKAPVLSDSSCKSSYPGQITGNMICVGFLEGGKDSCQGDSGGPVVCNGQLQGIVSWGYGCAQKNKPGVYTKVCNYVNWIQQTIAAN

In the case of TiO2–Ahx–Phe–Leu–Arg–COOH, the Efficiency in data set [1] was 0.32. Besides, the Ki in data set [1] (setting [5]) worked out at 11 ± 2 µM; in data set [1] (setting [6]), 7.1 ± 1.1 µM. For the same compound, the Michaelis-Menten constant (Km) (in general, the concentration of substrate that gives half-maximal velocity) in data set [2] (no inhibitor: 2.9 ± 0.8) was 6.4 ± 1.2 mM. For the same compound, in data set [2] (no inhibitor: 720 ± 100), the Vmax came out at 250 ± 30. The “Rate (erosion well formation rate, linear regression)” value was found to be 4.0 ± 0.4 mm^2/ μMtrypsin in data set [3] (1 μM inhibitor); 3.5± 0.4 mm^2/ μMtrypsin in data set [3] (5 μM inhibitor); 3.6 ± 0.1 mm^2/ μMtrypsin in data set [3] (10 μM inhibitor); 2.00 ± 0.1 mm^2/ μMtrypsin in data set [3] (15 μM inhibitor); 2.2 ± 0.3 mm^2/ μMtrypsin in data set [3] (25 μM inhibitor). Further, the “Plateau (relative asymptotic plateau value, asymptotic area ratio at virtually maximal inhibition)” value in data set [3] is on record as 0.42 ± 0.21.

As for ZnO–Ahx–Phe–Leu–Arg–COOH, the Efficiency in data set [1] is given as 0.77. Also, the Ki came to 4.4 ± 1.3 µM in data set [1] (setting [5]) and 7.6 ± 1.5 µM in data set [1] (setting [6]). Moreover, the “Rate (erosion well formation rate, linear regression)” value in data set [3] (1 μM inhibitor) was 3.1 ± 0.5 mm^2/ μMtrypsin; in data set [3] (5 μM inhibitor), 2.3 ± 0.50 mm^2/ μMtrypsin; in data set [3] (10 μM inhibitor), 2.2 ± 0.4 mm^2/ μMtrypsin; in data set [3] (15 μM inhibitor) it was 2.0 ± 0.5 mm^2/ μMtrypsin. In data set [3], the “Plateau (relative asymptotic plateau value, asymptotic area ratio at virtually maximal inhibition)” value amounted to 0.46 ± 0.02.

Consider “WorkBeads™‐Ahx‐Phe‐Leu‐Arg‐COOH [Ahx–Phe–Leu–Arg–COOH coupled to WorkBeads™ 40/1000 ACT agarose gel beads, 150 nmol·mL^−1 beads]”, for which the Efficiency in data set [1] is 0.12. The “fraction of the conjugated peptides available for the enzyme” value in data set [1] (according to the efficiency, peptide conjugated to agarose gel beads) was “about 10%”. Besides, the Ki came to 29 ± 4 µM in data set [1] (setting [5]) and 53 ± 9 µM in data set [1] (setting [6]).

Take `CC(=O)N[C@@H](CC(C)C)C(=O)N[C@@H](CC(C)C)C(=O)N[C@@H](CCCNC(=N)N)C(=O)O` [oxidized leupeptin]: in data set [4], the Ki stood at 2.7 ± 0.1 µM.

Consider `CC(=O)N[C@@H](CC(C)C)C(=O)N[C@@H](CC(C)C)C(=O)N[C@H](C=O)CCCNC(=N)N` [Leupeptin, Ac–Leu–Leu–Arg–CHO], for which the Ki in data set [4] is 0.088 ± 0.008 µM.

Regarding `CC(=O)N[C@@H](CC(C)C)C(=O)N[C@@H](CC(C)C)C(=O)N[C@H](CO)CCCNC(=N)N` [reduced leupeptin], the Ki in data set [4] was 270 ± 100 µM.

Take `CC(C)C[C@H](NC(=O)CCCCCN)C(=O)N[C@@H](CC(C)C)C(=O)N[C@@H](CCCNC(=N)N)C(=O)O` [Ahx–Leu–Leu–Arg–COOH] (H-[Ahx]LLR-OH): in data set [4], the Ki was 9.5 ± 1 µM.

As for `CC(C)C[C@H](NC(=O)[C@H](Cc1ccccc1)NC(=O)CCCCCN)C(=O)N[C@@H](CCCNC(=N)N)C(=O)O` [Ahx–Phe–Leu–Arg–COOH, 6‐aminohexanoic acid (Ahx)–Phe–Leu–Arg–COOH] (H-[Ahx]FLR-OH), the Ki in data set [4] turned out to be 3.4 ± 0.2 µM.

(Values after PMC7714073, “Inhibition properties of free and conjugated leupeptin analogues” (FEBS Open Bio, 2020).)
